Broadly, the IC50 is the concentration needed to halve the response being measured.

The record followed here is ChEMBL document CHEMBL3822383, “Coumarin sulfonamides derivatives as potent and selective COX-2 inhibitors with efficacy in suppressing cancer proliferation and metastasis” (Bioorg Med Chem Lett, 2016).

Calls of active or inactive are those of the source. The rule behind the calls is not given here.

Experiment [1] can be described thus: cells. As to conditions: Mus musculus, B16-F10, 24 h.
Description: Antiproliferative activity against mouse B16F10 cells after 24 hrs by MTT assay
The test system of experiment [2] is HeLa. Description: cells. As to conditions: Homo sapiens, 24 h.
Description: Antiproliferative activity against human HeLa cells after 24 hrs by MTT assay
Experiment [3] in a line: cells. The note with it: Homo sapiens, HEK-293T, 24 h.
Description: Antiproliferative activity against human 293T cells after 24 hrs by MTT assay
In experiment [4] the target is Prostaglandin G/H synthase 1 (Homo sapiens, UniProt P23219). Description: Inhibition of human COX1 using arachidonic acid assessed as production of PGF2alpha after 5 mins by ELISA.
For experiment [5], the system named is HepG2. Description: cells. The note with it: Homo sapiens, HepG2, 24 h.
Description: Antiproliferative activity against human HepG2 cells after 24 hrs by MTT assay
Experiment [6] can be described thus: cells. The note with it: Homo sapiens, L02, 24 h.
Description: Antiproliferative activity against human LO2 cells after 24 hrs by MTT assay
The subject of experiment [7] is A549. Description: cells. The note with it: Homo sapiens, A549, 24 h.
Description: Antiproliferative activity against human A549 cells after 24 hrs by MTT assay
Experiment [8] has as its system HeLa. Description: Inhibition of cell adhesion in human HeLa cells assessed as reduction in cell attachment up to 8 uM after 1 hr by MTT assay. It counts as functional, cell-based. For orientation: Formazan colour is commonly taken as a measure of viable cells.
Experiment [9] relates to HeLa. Description: Inhibition of PGE2 secretion in human HeLa cells at 0.1 uM after 24 hrs by EIA monoclonal assay. It counts as functional, cell-based.

Sequence of Prostaglandin G/H synthase 1 (P23219 whole entry): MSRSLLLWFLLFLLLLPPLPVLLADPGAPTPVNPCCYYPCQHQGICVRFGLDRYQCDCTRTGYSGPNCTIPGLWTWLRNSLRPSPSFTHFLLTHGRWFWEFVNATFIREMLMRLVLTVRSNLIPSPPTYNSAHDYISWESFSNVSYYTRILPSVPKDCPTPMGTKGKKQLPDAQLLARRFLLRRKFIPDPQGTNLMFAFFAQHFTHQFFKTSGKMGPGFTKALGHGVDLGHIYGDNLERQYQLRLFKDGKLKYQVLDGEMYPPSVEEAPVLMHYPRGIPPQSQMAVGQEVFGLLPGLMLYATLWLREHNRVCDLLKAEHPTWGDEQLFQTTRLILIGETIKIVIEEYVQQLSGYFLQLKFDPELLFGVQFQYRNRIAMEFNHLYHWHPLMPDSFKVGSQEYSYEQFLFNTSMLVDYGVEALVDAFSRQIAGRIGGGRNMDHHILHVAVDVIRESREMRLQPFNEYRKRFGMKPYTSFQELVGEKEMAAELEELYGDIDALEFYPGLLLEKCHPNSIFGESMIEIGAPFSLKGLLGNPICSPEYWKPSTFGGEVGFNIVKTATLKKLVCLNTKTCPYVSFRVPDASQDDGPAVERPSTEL

`NS(=O)(=O)c1ccc(-n2nc(C(=O)N/N=C/c3c(Cl)c4ccccc4oc3=O)cc2-c2cccc(F)c2)cc1`: the IC50 in experiment [1] was 8.79 µM; in [2], 3.43 µM; in experiment [3], 155 µM; in [4], 74.3 µM; in experiment [5], 4.74 µM; in experiment [6], 206 µM. This compound also yielded a concentration for half-maximal inhibition (IC50) in [7] of 16.2 µM.
`Cc1ccc(-c2cc(C(F)(F)F)nn2-c2ccc(S(N)(=O)=O)cc2)cc1` [CELECOXIB]: the IC50 stood at 14.4 µM in experiment [1]; 7.79 µM in [2]; 95.3 µM in experiment [3]; 10 µM in experiment [5]; 98.2 µM in [6]; 15.6 µM in experiment [7]. Moreover, the inhibition result in [8] was “inactive”. Moreover, the inhibition entry in [9] was “Active”.
As to `NS(=O)(=O)c1ccc(-n2nc(C(=O)N/N=C/c3c(Cl)c4ccccc4oc3=O)cc2-c2ccc(F)cc2)cc1`, the IC50 in experiment [1] was 9.76 µM; in experiment [2] it was 0.94 µM; in experiment [3], 181 µM; in experiment [4] it was 53.4 µM; in experiment [5] it was 3.53 µM; in experiment [6], 192 µM. In [7], this compound came in with an IC50 of 11.2 µM.
On to `COc1ccc(-c2cc(C(=O)N/N=C/c3c(Cl)c4ccccc4oc3=O)nn2-c2ccc(S(N)(=O)=O)cc2)cc1OC`, for which the IC50 in experiment [1] worked out at 19.8 µM; in experiment [2], 13.1 µM; in experiment [3] it was 175 µM; in [4], 69.3 µM; in [5], 21.2 µM; in experiment [6], 187 µM. In addition, in experiment [7], the IC50 was determined as 40.1 µM.
In the case of `NS(=O)(=O)c1ccc(-n2nc(C(=O)N/N=C/c3c(Cl)c4ccccc4oc3=O)cc2-c2ccccc2F)cc1`, the IC50 in experiment [1] is 6.41 µM; in experiment [2] it was 2.85 µM; in [3], 108 µM; in [4] it was over 100 µM; in experiment [5], 5.94 µM; in experiment [6] it was 148 µM. This compound registered an IC50 in [7] of 14.3 µM.
Regarding `Cc1ccc(-c2cc(C(=O)N/N=C/c3c(Cl)c4ccccc4oc3=O)nn2-c2ccc(S(N)(=O)=O)cc2)cc1`, the IC50 in experiment [1] is 6.22 µM; in experiment [2], 8.81 µM; in experiment [3], 189 µM; in experiment [4], 89.5 µM; in [5] it was 11.3 µM; in [6], over 300 µM. Besides, 22.1 µM corresponded to half-maximal inhibition in experiment [7] (IC50).
`NS(=O)(=O)c1ccc(-n2nc(C(=O)N/N=C/c3c(Cl)c4ccccc4oc3=O)cc2-c2ccccc2O)cc1`: the IC50 is 20.9 µM in experiment [1]; 11.7 µM in experiment [2]; over 300 µM in [3]; over 100 µM in [4]; 19.9 µM in experiment [5]; 159 µM in experiment [6]. This compound came in with an IC50 in [7] of 17.2 µM.
For the compound `NS(=O)(=O)c1ccc(-n2nc(C(=O)N/N=C/c3c(Cl)c4ccccc4oc3=O)cc2-c2ccccc2)cc1`, the IC50 is 9.53 µM in [1]; 9.86 µM in experiment [2]; 180 µM in [3]; over 100 µM in experiment [4]; 5.76 µM in experiment [5]; 183 µM in [6]. It took 33.5 µM to reach half-maximal inhibition in experiment [7] (IC50).
Turning to `NS(=O)(=O)c1ccc(-n2nc(C(=O)N/N=C/c3c(Cl)c4ccccc4oc3=O)cc2-c2ccc([N+](=O)[O-])cc2)cc1`, the IC50 in experiment [1] amounted to 4.04 µM; in experiment [2], 0.52 µM; in experiment [3], 113 µM; in experiment [4] it was 42.2 µM; in experiment [5], 1.63 µM; in experiment [6], 133 µM. The IC50 in experiment [7] turned out to be 3.85 µM.
